Test [1] deals with Trypanosoma cruzi Strain Y trypomastigotes. Put plainly: Trypanocidal assay: trypomastigotes pre-incubated with test compound, then added to HSVSM cell culture. The class given is cell-based. The settings on record: for percent of cells infected relative to untreated control at 0.5 µM / percent of cells infected relative to untreated control at 1 µM / percent of cells infected relative to untreated control at 5 µM / percent of cells infected relative to untreated control at 10 µM: Trypanosoma cruzi, read-out: percentage of cells infected by pre-treated trypomastigotes relative to untreated controls. Here is the method: (§1) Human saphenous vein smooth muscle (HSVSM) cells are isolated from outgrowths of explants of unused portions of veins harvested for coronary artery bypass surgery as described previously by Warner et al., J. Exp. Med., 165, 1316-1331 (1987). The cells are maintained in DME medium containing 5.5 mM glucose, 25 mM HEPES and 10% FBS (Hy-Clone Laboratories,Logan, Utah). Trypanosoma cruzi Strain Y trypomastigotes are propagated as described previously by Libby et al., J. Clin. Invest., 77, 127-135 (1986), except that HSVSM cells are used in place of bovine aortic smooth muscle cells.
Test compounds are dissolved in 0.3 ml DMSO and brought to volume by dilution with serum-free DME medium. Solutions are sterilized by filtration through 0.22 μm filter units. Trypomastigotes (10^7 ml^-1) are harvested and washed twice in serum-free DME medium. Parasites are added to solutions of the test compounds to a final concentration of 10^6 ml^-1 and incubated for 3 hours at 37° C. in a 5% CO2 atmosphere. After incubation with the test compound, 0.1 ml of the parasite suspension (10^5 organisms) is diluted with 0.4 ml cell culture medium and added to a culture of HSVSM cells. After 16 hours, the HSVSM cells are washed to remove non-internalized trypomastigotes and resupplied with fresh culture medium. Infections are followed for 4-7 days by light microscopy.
Trypomastigotes were pre-incubated with a test compound or a prior art compound as described above. Results are expressed as the percentage of cells infected by pre-treated trypomastigotes relative to untreated controls.

In another test the test system is trypomastigotes. As to the kind of experiment: Ongoing infection model in human smooth muscle cells infected with trypomastigotes. The format is cell-based, Trypanosoma cruzi. Conditions: compound incubated 16 hours, counted 5 days after initial infection, untreated 1.85 × 10^7. Here is the method:
as §1
The effects of the compounds of the present invention have also been tested in an ongoing infection model. […] The cells are then incubated for 48 hours after which time the test compounds are added to the cultures and incubated for 16 hours. After 16 hours, the treated culture media is replaced with drug-free fresh media and cell culture is continued for a further 24 hours. Levels of parasitemia in the treated and untreated cultures are then examined.
*Number of trypomastigotes/ml counted swimming above the HSVM cell
monolayer 5 days after initial infection.

The target in a further test is trypanothione reductase (Crithidia fasciculata, UniProt P39040). As to the kind of experiment: Incubation of trypanothione reductase with compound under aerobic and anaerobic conditions, dialysis, then T(S)2 reductase assay. The class given is biochemical, C. fasciculata. The settings on record: 0.277778 h, pH 7.8, read-out: loss of T(S)2 reductase activity relative to the aerobic control. Here is the method:
(§2) Trypanothione disulfide reductase activity is assayed spectrophotometrically by monitoring substrate-dependent oxidation of NADPH at 340 nm. Alternatively, enzyme activity is monitored by coupling radical formation to cytochrome C reduction and measuring absorbance changes (ε550 =21 mM^-1). Absorbance changes are monitored on a spectrophotometer with a thermostated cuvette chamber. Enzyme concentration is measured spectrophotometrically using the extinction coefficient (ε464 =11.3 mM^-1, Shames et al., Biochemistry, 25, 3519-3526 (1986). Kinetic runs are carried out at 27° C. in 0.1M 4-(2-hydroxyethyl)1-piperazineethane sulfonic acid (HEPES) buffer, pH 7.8, containing 0.1 mM EDTA and 0.25 mM NADPH. Anaerobic measurements are performed in rubber stoppered cuvettes that have been flushed repeatedly with helium. All buffers and solutions used in the assays are treated in this manner. Additions to the cuvette are made with a microsyringe piercing the septum.
Assays are carried out in 0.1M HEPES, pH 7.8, containing 1 mM EDTA, 0.15 mM […], 500 pmoles/ml trypanothione reductase and 10 μM nitrofuran VIII. Reactions are started by addition of enzyme (80 μl to a 2 ml assay). Sequential spectra (200-800 nm) are collected at 20 sec intervals using a UV/Vis spectrophotometer. At the end of the experiment, the assay mixtures are dialyzed and trypanothione reductase is assayed using 250 μM T(S)2. […]

In test [2] the target is trypanothione reductase from C. fasciculata (Crithidia fasciculata, UniProt P39040). As to the kind of experiment: Enzymatic reduction of compounds as substrates of trypanothione reductase (NADPH oxidation, cytochrome C coupled assay). The class given is biochemical. The settings on record: aerobic. As to the method:
FIG. 2 is a graph of the results of the enzymatic reduction of compounds C, D and E of the present invention and comparative prior art compounds as a function of substrate concentration. Relative rates were measured under aerobic conditions by coupling superoxide production to cytochrome C reduction as described.
as §2, with “septum. […]” for “septum.”

Setting [3] is: 0.5 μM, 3 hours pre-incubation at 37° C., HSVSM cells.
[4] abbreviates: 1 μM, 3 hours pre-incubation at 37° C., HSVSM cells.
Setting [5] is: 5 μM, 3 hours pre-incubation at 37° C., HSVSM cells.
Where [6] appears, read: 10 μM, 3 hours pre-incubation at 37° C., HSVSM cells.

Structures can show the parent of a compound that is named as a salt. Where two headings read alike, the source gives them in different places.

trypanothione reductase from C. fasciculata, sequence (P39040 whole entry): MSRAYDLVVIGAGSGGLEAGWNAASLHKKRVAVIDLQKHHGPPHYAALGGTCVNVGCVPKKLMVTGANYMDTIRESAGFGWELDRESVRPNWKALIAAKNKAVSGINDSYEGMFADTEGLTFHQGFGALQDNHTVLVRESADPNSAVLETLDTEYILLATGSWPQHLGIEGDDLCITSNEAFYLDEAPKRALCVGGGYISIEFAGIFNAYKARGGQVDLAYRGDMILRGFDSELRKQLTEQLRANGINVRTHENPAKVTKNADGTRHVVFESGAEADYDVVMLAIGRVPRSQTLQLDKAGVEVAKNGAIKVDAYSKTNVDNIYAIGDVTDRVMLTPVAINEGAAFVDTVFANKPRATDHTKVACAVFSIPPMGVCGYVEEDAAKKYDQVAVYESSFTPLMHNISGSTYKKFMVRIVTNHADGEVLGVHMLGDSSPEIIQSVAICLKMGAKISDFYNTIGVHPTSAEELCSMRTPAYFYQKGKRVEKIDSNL
trypanothione reductase, sequence (P39040 whole entry): as above

Regarding `N=C(N)NN=Cc1ccc([N+](=O)[O-])o1` [Guanofuracin, reference compound], in test [1] (3 h), the percent of cells infected relative to untreated control at 0.5 µM was determined as 100%, the percent of cells infected relative to untreated control at 1 µM is 45%, the percent of cells infected relative to untreated control at 5 µM turned out to be 0% and the percent of cells infected relative to untreated control at 10 µM was found to be 0%.
As for `CC(CCC1=C(C)C(=O)c2ccccc2C1=O)=NNC(=N)N` [Compound B, hydrochloride], in test [1] (setting [3]), the percent of cells infected relative to untreated control at 0.5 µM is 100%. The percent of cells infected relative to untreated control at 1 µM in test [1] (setting [4]) is 100%. For the same molecule, the percent of cells infected relative to untreated control at 5 µM in test [1] (setting [5]) is 21%. Also, the percent of cells infected relative to untreated control at 10 µM in test [1] (setting [6]) was found to be 8%.
As to “2-(5-Nitro-2-furanylmethylidene)-N-[3-(4-methylpiperidin-1-yl)propyl]hydrazinecarboximidamide trihydrobromide [Compound D]”, the “percentage of cells infected by pre-treated trypomastigotes relative to untreated controls” value was determined as 64% in test [1] (setting [3]), 35% in test [1] (setting [4]), 0% in test [1] (setting [5]) and 0% in test [1] (setting [6]). For the same molecule, the “Trypomastigotes/ml counted swimming above the HSVM cell monolayer” value in the test on trypomastigotes (1 μM) was 1.80 × 10^7 Trypomastigotes/ml; in the test on trypomastigotes (10 μM) it was < 2.00 × 10^4 Trypomastigotes/ml.
As for `N=C(NCCCN1CCN(CCCNC(=N)NN=Cc2ccc([N+](=O)[O-])o2)CC1)NN=Cc1ccc([N+](=O)[O-])o1` [Compound E, 2,2'-Bis(5-nitro-2-furanylmethylidene)-N,N'-[1,4-piperazinediylbis(3,1-propanediyl)]-bishydrazinecarboximidamide tetrahydrobromide], the inhibition at 10 µM on trypanothione reductase was 93%. For the same molecule, in test [1] (3 h), the percent of cells infected relative to untreated control at 0.5 µM is 100%, the percent of cells infected relative to untreated control at 1 µM worked out at 0%, the percent of cells infected relative to untreated control at 5 µM came out at 0% and the percent of cells infected relative to untreated control at 10 µM amounted to 0%. Also, in the test with trypomastigotes (1 μM), the “Trypomastigotes/ml counted swimming above the HSVM cell monolayer” value is on record as 1.85 × 10^7 Trypomastigotes/ml. The “Trypomastigotes/ml counted swimming above the HSVM cell monolayer” value in the test on trypomastigotes (10 μM) is 2.85 × 10^7 Trypomastigotes/ml.
For the molecule `CC(CCC1=C(CCC(C)=NNC(=N)N)C(=O)c2ccccc2C1=O)=NNC(=N)N.Cl.Cl` [Compound A, 2,3-Bis(3-(2-amidinohydrazono)butyl)-1,4-naphthoquinone dihydrochloride], the percent of cells infected relative to untreated control at 0.5 µM in test [1] (setting [3]) stood at 14%. The percent of cells infected relative to untreated control at 1 µM in test [1] (setting [4]) is 0%. The percent of cells infected relative to untreated control at 5 µM in test [1] (setting [5]) is 0%. In addition, the percent of cells infected relative to untreated control at 10 µM in test [1] (setting [6]) was 0%. Further, the “Trypomastigotes/ml counted swimming above the HSVM cell monolayer” value in the test with trypomastigotes (1 μM) is reported as 4.10 × 10^7 Trypomastigotes/ml; in the test on trypomastigotes (10 μM) it was 1.35 × 10^7 Trypomastigotes/ml.
Consider `CC1CS(=O)(=O)CCN1/N=C/c1ccc([N+](=O)[O-])o1` (stereo not drawn) [Nifurtimox, reference compound], for which the “trypanothione reductase-catalyzed reduction monitored by NADPH oxidation” value in test [2] was “could be detected”. Besides, in test [1] (3 h), the percent of cells infected relative to untreated control at 0.5 µM was 100%, the percent of cells infected relative to untreated control at 1 µM was 100%, the percent of cells infected relative to untreated control at 5 µM was 10% and the percent of cells infected relative to untreated control at 10 µM was 4%.
Consider `NC(=O)N/N=C/c1ccc([N+](=O)[O-])o1` [nitrofurazone], for which, in test [2], the “trypanothione reductase-catalyzed reduction monitored by NADPH oxidation” value was “could be detected”.

Values taken from patent US4942170A, “2-(substituted methylidene)-N-[3-[piperidin-1-yl]propyl]hydrazine carboximidamides useful as antiparasitics” (The Rockefeller University, priority 1988, dated 1990).
